{
  "source": "patent US20230322723A1",
  "about": "“COMPOUNDS FOR SUPPRESSING EGFR MUTANT CANCER AND PHARMACEUTICAL USE THEREOF” (J2H BIOTECH INC., priority 2020, published 2023)",
  "key": {"[1]": {"assay": "Pharmacokinetic evaluation after single oral administration to ICR mice", "type": "in vivo", "conditions": "for half-life / AUC(0-t): mouse, ICR mice, single oral dose 5 mg/kg, plasma; for AUC(0-t): read-out: AUC0-24", "outline": "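ICR mice received a single oral dose of 5 mg/kg suspended in 10% DMSO/90% (30% HPbCD aqueous solution). Plasma concentrations over time were measured by LC-MS/MS after methanol precipitation. AUC0-t, AUC0-∞, Cmax, Tmax and t1/2 came from noncompartmental analysis, given as mean and SD.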"}, "[2]": {"test_system": "EGFR^del19+T790M+C797S", "assay": "EGFR protein degradation test (Western blot) in Ba/F3 cells expressing mutant EGFR del19+T790M+C797S (DTC)", "type": "cell-based", "conditions": "compounds at 0.1 μM and 1 μM, 24 hours, Western blot with EGFR antibody", "outline": "(§1)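 Ba/F3 cells expressing wild-type EGFR, del19+T790M+C797S or L858R+T790M+C797S EGFR were treated with compound at 0.1 μM and 1 μM for 24 h. Lysates (30 μg) were analysed by SDS-PAGE and EGFR Western blot, with bands quantified densitometrically.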"}, "[3]": {"molecular_target": "T1, EGFR^L858R+T790M+C797S (Homo sapiens, UniProt P00533, C797S/L858R/T790M)", "T1 construct": "expressed in transfected cells; host or cells: Ba/F3", "T1 sequence (P00533 25-1210 T790M/C797S/L858R)": "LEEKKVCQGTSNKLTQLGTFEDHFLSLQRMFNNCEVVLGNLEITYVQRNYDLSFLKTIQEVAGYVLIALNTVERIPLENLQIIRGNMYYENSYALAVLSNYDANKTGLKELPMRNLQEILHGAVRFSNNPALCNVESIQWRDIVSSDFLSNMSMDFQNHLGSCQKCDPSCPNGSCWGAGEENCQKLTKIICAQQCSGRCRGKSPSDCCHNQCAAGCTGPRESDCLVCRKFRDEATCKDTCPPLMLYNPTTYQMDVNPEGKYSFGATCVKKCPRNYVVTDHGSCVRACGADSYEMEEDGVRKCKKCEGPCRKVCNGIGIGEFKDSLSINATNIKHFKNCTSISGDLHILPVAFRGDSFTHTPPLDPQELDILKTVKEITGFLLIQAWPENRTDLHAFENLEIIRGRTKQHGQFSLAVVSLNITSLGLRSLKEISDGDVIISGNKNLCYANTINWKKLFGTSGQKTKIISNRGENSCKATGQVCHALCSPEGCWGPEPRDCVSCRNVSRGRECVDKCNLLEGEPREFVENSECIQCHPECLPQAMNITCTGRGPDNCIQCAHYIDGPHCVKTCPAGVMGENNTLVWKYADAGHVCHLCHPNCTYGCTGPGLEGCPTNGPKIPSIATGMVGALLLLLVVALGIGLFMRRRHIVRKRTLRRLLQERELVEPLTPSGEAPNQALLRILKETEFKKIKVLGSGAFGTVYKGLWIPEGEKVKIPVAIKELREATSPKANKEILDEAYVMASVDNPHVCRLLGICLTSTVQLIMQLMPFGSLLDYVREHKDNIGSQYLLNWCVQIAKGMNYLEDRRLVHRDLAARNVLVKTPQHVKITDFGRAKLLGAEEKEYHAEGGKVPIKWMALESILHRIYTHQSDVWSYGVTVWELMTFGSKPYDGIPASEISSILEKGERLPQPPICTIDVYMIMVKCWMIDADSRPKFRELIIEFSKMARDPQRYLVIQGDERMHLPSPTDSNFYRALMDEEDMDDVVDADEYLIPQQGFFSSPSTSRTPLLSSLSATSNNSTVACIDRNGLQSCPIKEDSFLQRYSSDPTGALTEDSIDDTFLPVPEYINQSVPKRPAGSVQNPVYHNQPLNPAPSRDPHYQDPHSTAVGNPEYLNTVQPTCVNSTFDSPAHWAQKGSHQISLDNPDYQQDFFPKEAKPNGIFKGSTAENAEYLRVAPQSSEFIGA", "assay": "EGFR protein degradation test (Western blot) in Ba/F3 cells expressing mutant EGFR L858R+T790M+C797S (LTC)", "type": "cell-based", "conditions": "compounds at 0.1 μM and 1 μM, 24 hours, Western blot with EGFR antibody", "outline": "as §1"}},
  "data": [
    {"smiles": "COc1cc(N2CCN(CC3CCN(C(=O)COc4cccc5c4C(=O)N(C4CCC(=O)NC4=O)C5=O)CC3)CC2)c(C)cc1Nc1ncc(Cl)c(Nc2ccccc2N(C)S(C)(=O)=O)n1", "note": "(stereo not shown) [Compound 81, N-(2-((5-chloro-2-((4-(4-((1-(2-((2-(2,6-dioxopiperidin-3-yl)-1,3-dioxoisoindolin-4-yl)oxy)acetyl)piperidin-4-yl)methyl)piperazin-1-yl)-2-methoxy-5-methylphenyl)amino)pyrimidin-4-yl)amino)phenyl)-N-methylmethanesulfonamide]", "values": [
      {"measurement": "AUC compared to the corresponding compounds", "setting": "[1]; 74, 76, 77, 80, 81 vs 45, 71, 51, 65, 53", "value": "significantly improved AUC"},
      {"measurement": "half-life", "setting": "[1]", "value": 4.73, "unit": "h"},
      {"measurement": "AUC(0-t)", "setting": "[1]", "value": 502, "unit": "ng·h/mL"},
      {"measurement": "DTC (EGFR^del19+T790M+C797S) protein degradation", "setting": "[2]", "value": "++ (Protein degradation > 80%)"},
      {"measurement": "LTC (EGFR^L858R+T790M+C797S) protein degradation", "setting": "[3]", "value": "++ (Protein degradation > 80%)"}
    ]},
    {"smiles": "COc1cc(N2CCN(CC3CCN(C(=O)[C@H](C)Oc4cccc5c4C(=O)N(C4CCC(=O)NC4=O)C5=O)CC3)CC2)c(C)cc1Nc1ncc(Cl)c(Nc2ccccc2N(C)S(C)(=O)=O)n1", "note": "(stereo partly drawn) [Compound 82, N-(2-((5-chloro-2-((4-(4-((1-((2S)-2-((2-(2,6-dioxopiperidin-3-yl)-1,3-dioxoisoindolin-4-yl)oxy)propanoyl)piperidin-4-yl)methyl)piperazin-1-yl)-2-methoxy-5-methylphenyl)amino)pyrimidin-4-yl)amino)phenyl)-N-methylmethanesulfonamide]", "values": [
      {"measurement": "AUC compared to the corresponding compounds", "setting": "[1]; 69, 70, 75, 78, 82 vs compounds 53 and 65", "value": "significantly improved AUC"},
      {"measurement": "half-life", "setting": "[1]", "value": 6.03, "unit": "h"},
      {"measurement": "AUC(0-t)", "setting": "[1]", "value": 366, "unit": "ng·h/mL"},
      {"measurement": "DTC (EGFR^del19+T790M+C797S) protein degradation", "setting": "[2]", "value": "++ (Protein degradation > 80%)"},
      {"measurement": "LTC (EGFR^L858R+T790M+C797S) protein degradation", "setting": "[3]", "value": "++ (Protein degradation > 80%)"}
    ]}
  ]
}
